Assay type in all cases: in vitro ADME
The target of one data set is T1, CYP2C8 (Homo sapiens, UniProt P10632).
T1 construct: purchased Cypex Ltd. (Dundee, UK)
T1 sequence (P10632 1-490): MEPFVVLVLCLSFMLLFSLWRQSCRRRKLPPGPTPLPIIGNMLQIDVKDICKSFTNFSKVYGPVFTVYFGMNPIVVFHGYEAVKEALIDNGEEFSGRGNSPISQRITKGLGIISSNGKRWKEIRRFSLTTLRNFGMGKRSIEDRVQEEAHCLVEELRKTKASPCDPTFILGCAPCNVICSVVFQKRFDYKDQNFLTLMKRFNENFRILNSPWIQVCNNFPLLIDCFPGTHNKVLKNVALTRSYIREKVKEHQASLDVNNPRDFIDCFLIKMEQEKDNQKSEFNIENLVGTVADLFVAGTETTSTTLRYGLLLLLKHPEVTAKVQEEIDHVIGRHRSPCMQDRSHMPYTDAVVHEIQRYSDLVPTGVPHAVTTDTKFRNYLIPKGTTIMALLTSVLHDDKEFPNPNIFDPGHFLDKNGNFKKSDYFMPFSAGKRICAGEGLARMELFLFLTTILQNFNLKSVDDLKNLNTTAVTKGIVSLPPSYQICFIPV
In words: Incubation with human cDNA-expressed CYP2C8. To be noted: CYP2C8, 30 min at 37 °C with NADPH; ETN101 10 μM or M1 1 μM. As to the method:
(§1) ETN101 or M1 was incubated with nine human cDNA-expressed CYP enzymes (1A2, 2A6, 2B6, 2C8, 2C9, 2C19, 2D6, 2E1, and 3A4) to identify the CYPs involved in the metabolism of ETN101. Based on the preliminary study, the incubation conditions were determined as follows: Briefly, reaction mixtures of 50 μL containing ETN101 (final concentration: 10 μM) or M1 (final concentration: 1 μM), and CYPs (final amount: 5 pmol for CYP1A2, 2A6, 2C8, 2C9, 2C19, 2D6, and 3A4; 10 pmol for CYP2B6 and 2E1) were prepared in 0.1 M potassium phosphate buffer. The reaction was initiated by adding 50 μL of NADPH- regenerating system; the mixtures were incubated for 0 min or 30 min at 37 °C in triplicate. Reactions were terminated by the addition of 100 μL of ice-cold acetonitrile containing the IS (camptothecin, 200 ng/mL). Samples were centrifuged at 13,000 rpm for 5 min at 4 °C. An aliquot of 2 μL supernatant was injected in LC–MS/MS system.
(§2) For enzyme characterization, an Agilent 6460 triple quadrupole mass spectrometer coupled with a 1260 HPLC system (Agilent Technologies, Santa Clara, CA, USA) and a Kinetex Halo® C18 column (2.7 μm, 2.1 × 50 mm, Advanced Material Technology, Wilmington, DE, USA) were used for chromatographic separation. […] ETN101, M1, and M2 were detected via MRM using ESI in the positive mode. […]

Another data set deals with T2, CYP2E1 (Homo sapiens, UniProt P05181).
T2 construct: purchased Corning Life Sciences (Woburn, MA, USA)
In words: Incubation with human cDNA-expressed CYP2E1. To be noted: CYP2E1, 30 min at 37 °C with NADPH; ETN101 10 μM or M1 1 μM. As to the method: as §1, §2

The test system of the next data set is dog hepatocytes. The experiment in a line: Metabolite characterization in dog hepatocytes. As to conditions: dog hepatocyte 1 h incubates of ETN101; ND:<1.2E+05 peak area. As for the experimental part:
We mixed 60 μL aliquots of 40 μM ETN101 in incubation medium and an equal volume of human, mouse, rat, dog, or monkey hepatocyte suspension in 96-well plates and incubated for 0 or 1 h in a CO2 incubator at 37 °C. The reactions were quenched by adding 120 µL of ice-cold acetonitrile to each well, and the cell suspension was sonicated for 5 min at 4 °C. Subsequently, centrifugation was carried out at 15,000× g for 10 min at 4 °C. Next, the supernatants were evaporated to dryness using a vacuum concentrator, and residues were re-dissolved in 70 μL of 30% acetonitrile. Each sample (5 μL aliquots) was analyzed using LC–HRMS system.
For metabolite characterization, a Vanquish HPLC system (Thermo Fisher Scientific, San José, CA, USA) coupled with a Q-Exactive Orbitrap mass spectrometer (Thermo Fisher Scientific Inc., Waltham, MA, USA) was used at Core Research Support Center for Natural Products and Medical Materials at Yeungnam University. […] The eluent from the column was directly injected into the mass spectrometer using a heated electrospray ionization (HESI) source in positive ionization mode. […] The spray voltage was 3.0 kV and the capillary temperature was 320 °C. Full scan MS^1 with a data-dependent MS^2 acquisition mode was applied to obtain MS^1 scan data ranging from m/z 80 to 900, at a resolution of 70,000, whereas data-dependent MS^2 spectra were acquired for the five most abundant peaks per cycle at a resolution of 35,000. The parallel reaction monitoring (PRM) mode was used to obtain the MS^2 spectra of putative metabolites detected at low peak intensities in the data-dependent MS^2 acquisition mode. Data were collected and interpreted using Thermo Scientific Xcalibur™ Software (Thermo Fisher Scientific).

T2 sequence (P05181 whole entry): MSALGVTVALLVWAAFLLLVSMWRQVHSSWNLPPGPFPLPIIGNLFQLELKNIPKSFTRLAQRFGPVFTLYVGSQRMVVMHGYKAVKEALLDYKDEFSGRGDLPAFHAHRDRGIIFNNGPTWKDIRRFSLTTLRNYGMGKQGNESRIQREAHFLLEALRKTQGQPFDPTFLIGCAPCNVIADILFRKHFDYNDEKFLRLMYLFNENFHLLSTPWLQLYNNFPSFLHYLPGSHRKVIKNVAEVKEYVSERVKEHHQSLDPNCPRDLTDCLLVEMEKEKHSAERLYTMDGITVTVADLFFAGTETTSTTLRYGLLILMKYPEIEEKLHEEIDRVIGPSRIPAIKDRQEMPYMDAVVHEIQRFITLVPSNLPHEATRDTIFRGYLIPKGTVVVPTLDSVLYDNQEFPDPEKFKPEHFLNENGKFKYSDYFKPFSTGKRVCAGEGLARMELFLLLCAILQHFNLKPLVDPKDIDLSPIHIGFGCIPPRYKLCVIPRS

As for `Nc1ccc(-c2nc3ccccc3s2)cc1` [M1, 2-(4-aminophenyl)benzothiazole], the Percentage remaining was 86.6% at CYP2C8 and 97.3% at CYP2E1. In addition, in the data set on dog hepatocytes, the “Relative peak area (%)” value came to 55.9%.
On to `NCC(N)C(=O)Nc1ccc(-c2nc3ccccc3s2)cc1` (stereo not drawn) [ETN101, 2,3-diamino-N-(4-(benzo[d]thiazol-2-yl)phenyl)propanamide], for which the Percentage remaining on CYP2C8 stood at 105.0%; at CYP2E1, 81.1%. Besides, in the data set on dog hepatocytes, the “Relative peak area (%)” value is 39.5%.
